Data on 26 compounds can be found in patent publication US12686690B2, “Macrocyclic urea orexin receptor agonists” (Merck Sharp & Dohme LLC, priority 2020, dated 2026).

In this assay the target is T1, hOX2R (Homo sapiens, UniProt O43614).
T1 construct: expressed in transfected cells; host or cells: CHO cells (G418 selection)
T1 sequence (O43614 1-444): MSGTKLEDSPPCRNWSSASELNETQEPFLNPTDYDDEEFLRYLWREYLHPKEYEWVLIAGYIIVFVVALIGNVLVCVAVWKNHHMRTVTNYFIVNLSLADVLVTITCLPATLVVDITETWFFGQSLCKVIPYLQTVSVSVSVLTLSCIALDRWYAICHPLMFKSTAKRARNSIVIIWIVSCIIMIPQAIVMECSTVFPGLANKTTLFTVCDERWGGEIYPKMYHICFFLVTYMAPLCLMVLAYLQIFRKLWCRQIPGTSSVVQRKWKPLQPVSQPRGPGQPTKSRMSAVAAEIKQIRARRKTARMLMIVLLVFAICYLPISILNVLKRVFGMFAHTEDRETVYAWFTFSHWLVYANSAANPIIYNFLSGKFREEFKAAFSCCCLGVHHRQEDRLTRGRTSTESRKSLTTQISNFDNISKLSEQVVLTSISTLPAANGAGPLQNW
As to the kind of experiment: hOX2R IPone assay (orexin receptor agonism). The following applies: IPone readout; for hOX2R_Ipone max %act: maximal activation; for EC50: orexin receptor agonist, read-out: hOX2R_IPone EC50. The class given is cell-based.

With `CCN1C(=O)N[C@@H](CCC(F)(F)F)CCCCCOc2nc(nn3cc(C)nc23)-c2cc(ncc2OC)[C@H]1C` [Example 123, (3R,7R,E)-4-ethyl-25-methoxy-16,3-dimethyl-7-(3,3,3-trifluoropropyl)-13-oxa-4,6-diaza-1(2,4)-imidazo[2,1-f][1,2,4]triazina-2(4,2)-pyridinacyclotridecaphan-5-one], the hOX2R_Ipone max %act amounted to 102.5% and the EC50 (usually the concentration that produces a half-maximal response) was 13.8 nM.
For `CCN1C(=O)N[C@@H](CCC(F)(F)F)CCCCCOc2nc(cn3ccnc23)-c2cc(ncn2)[C@H]1C` [Example 112A, (12R,16R)-13-ethyl-12-methyl-16-(3,3,3-trifluoropropyl)-12,13,16,17,18,19,20,21-octahydro-6,23-(azeno)-11,7-(metheno)imidazo[2,1-c][1,4,8,10,13,15]oxapentaazacyclohenicosin-14(15H)-one], the hOX2R_Ipone max %act worked out at 101.2% and the EC50 came to 6.8 nM.
The like results for `CCN1C(=O)N[C@@H](CCC(F)(F)F)CCCCCOc2nc(cn3ccnc23)-c2nc(ncc2C)[C@H]1C` [Example 93B, (12R,16R)-13-ethyl-8,12-dimethyl-16-(3,3,3-trifluoro-propyl)-12,13,16,17, 18,19,20,21-octa-hydro-6,23:11,7-di(azeno)imidazo[2,1-c][1,4,10,13,15]oxatet-raazacyclohenicosin-14(15H)-one] were, in that order, 100.6% and 1.8 nM.
Taken in the same sequence, the figures for `CCN1C(=O)N[C@@H](CCC(F)(F)F)CCCCCOc2nc(cn3ncnc23)-c2ccnc(c2)[C@H]1C` [Example 142, (3R,7R,E)-4-ethyl-3-methyl-7-(3,3,3-trifluoropropyl)-13-oxa-4,6-diaza-1(6,8)-[1,2,4]triazolo[1,5-a]pyrazina-2(4,2)-pyridinacyclotridecaphan-5-one] were 100.3% and 4.71 nM.
Take `CCN1C(=O)N[C@@H](C)C(F)(F)CCCCOc2nc(cn3ccnc23)-c2cc(ncc2OC)[C@H]1C` [Example 141, (3R,7S,E)-4-ethyl-8,8-difluoro-25-methoxy-3,7-dimethyl-13-oxa-4,6-diaza-1(6,8)-imidazo[1,2-a]pyrazina-2(4,2)-pyridinacyclotridecaphan-5-one]: the hOX2R_Ipone max %act is 99.01% and the EC50 is 8.35 nM.
The like results for `CCN1C(=O)N[C@@H](CCC(C)(F)F)CCOCCOc2nc(cc3c(C)cnn23)-c2cc(ncc2OC)[C@H]1C` [Example 171, (3R,7S,E)-7-(3,3-difluorobutyl)-4-ethyl-25-methoxy-3-methyl-9,13-dioxa-4,6-diaza-1(5,7)-pyrazolo[1,5-c]pyrimidina-2(4,2)-pyridinacyclotridecaphan-5-one] were, in that order, 107.9% and 1.45 nM.
The like results for `CCN1C(=O)N[C@@H](CCC(F)(F)F)CCCCCOc2cc(cc3cccnc23)-c2cc(ncc2OC)[C@H]1C` [Example 157, (3R,7R)-4-ethyl-25-methoxy-3-methyl-7-(3,3,3-trifluoropropyl)-13-oxa-4,6-diaza-1(6,8)-quinolina-2(4,2)-pyridinacyclotridecaphan-5-one] were, in that order, 99.72% and 2.68 nM.
As for `CCN1C(=O)N[C@@H](CCC(F)(F)F)CCCCCOc2nc(cn3ccnc23)-c2cc(nc3ccoc23)C1C` (single isomer, unassigned) [Example 74A], the hOX2R_Ipone max %act stood at 99.5% and the EC50 turned out to be 17.3 nM.
The like results for `CCN1C(=O)NC(c2nc(C)cs2)CCCCCOc2nc(cn3ccnc23)-c2cc(ncc2OC)[C@H]1C` (stereo partly drawn) [Example 218, (3R,E)-4-ethyl-2^5-methoxy-3-methyl-7-(4-methylthiazol-2-yl)-13-oxa-4,6-diaza-1(6,8)-imidazo[1,2-a]pyrazina-2(4,2)-pyridinacyclotridecaphan-5-one] were, in that order, 102.4% and 0.9 nM.
The like results for `CCN1Cc2cccc(c2)-c2cn3ccnc3c(n2)OCCCC[C@H](CCC(F)(F)F)NC1=O` [Example 43, (16R)-13-ethyl-16-(3,3,3-trifluoropropyl)-12,13,15,16,17,18,19,20-octahydro-14H-6,22-(azeno)-11,7-(metheno)imidazo[2,1-c][1,4,13,15]oxatriaza-cycloicosin-14-one] were, in that order, 97.6% and 49.9 nM.
The like results for `CCN1C(=O)N[C@@H](CCC(F)(F)F)CCCCOc2nc(cn3cc(C)nc23)-c2cc(ncc2OC)C1C(F)(F)F` (single isomer, unassigned) [Example 36A] were, in that order, 101% and 64 nM.
As to `CCN1C(=O)N[C@@H](CCC(F)(F)F)CCCCCOc2nc(cn3ccnc23)-c2cc(cnc2C)[C@H]1C` [Example 78, (12R,16R)-13-ethyl-8,12-dimethyl-16-(3,3,3-trifluoropropyl)-12,13,16,17,18,19,20, 21-octahydro-6,23-(azeno)-11,7-(metheno)imidazo[2,1-c][1,4,9,13,15]oxatet-raazacyclohenicosin-14(15H)-one], the hOX2R_Ipone max %act was determined as 99.0% and the EC50 came to 1.7 nM.
The like results for `CCN1C(=O)N[C@@H](CCC(F)(F)F)COCCCOc2nc(cn3cnnc23)-c2cc(ncc2OC)[C@H]1C` [Example 173, (3R,7S,E)-4-ethyl-25-methoxy-3-methyl-7-(3,3,3trifluoropropyl)-9,13-dioxa-4,6-diaza-1(6,8)-[1,2,4]triazolo[4,3-a]pyrazina-2(4,2)-pyridinacyclotridecaphan-5-one] were, in that order, 103.9% and 3.71 nM.
On to `CCN1C(=O)N[C@@H](CCC(F)(F)F)CCCCCOc2nc(cn3ccnc23)C2=NC=C(S2)C1C` (single isomer, unassigned) [Example 94B], for which the hOX2R_Ipone max %act is 100.3% and the EC50 was determined as 54.4 nM.
Taken in the same sequence, the figures for `CCN1C(=O)NC(CC2CCOC2)CCCCCOc2nc(cn3ccnc23)-c2cc(ncc2OC)[C@H]1C` (single isomer, unassigned) [Example 67A] were 99.8% and 9.6 nM.
As for `CCN1C(=O)N[C@@H](CCC(F)(F)F)CCCCCOc2nc(nn3ccnc23)-c2cccc(c2)[C@H]1C` [Example 87, (12R,16R)-13-ethyl-12-methyl-16-(3,3,3-trifluoropropyl)-12,13,16,17,18,19,20, 21-octahydro-6,23-(azeno)-11,7-(metheno)imidazo[2,1-c][1,4,5,13,15] oxatetraazacycloheni-cosin-14(15H)-one], the hOX2R_Ipone max %act is 100.6% and the EC50 was 5.8 nM.
For the compound `CCN1C(=O)N[C@@H](CCC(F)(F)F)CCCCCOc2nc(cc3ccnn23)-c2cc(ncc2OC)C1C` (single isomer, unassigned) [Example 88A], the hOX2R_Ipone max %act amounted to 100.2% and the EC50 is 67.8 nM.
Taken in the same sequence, the figures for `CCN1C(=O)NCCCCCCCOc2nc(cn3ccnc23)-c2cc(ncc2OC)[C@H]1C` [Example 177, (R,E)-4-ethyl-25-methoxy-3-methyl-14-oxa-4,6-diaza-1(6,8)-imidazo[1,2-a]pyrazina-2(4,2)-pyridinacyclo-tetradecaphan-5-one] were 100.5% and 62.5 nM.
The like results for `CCN1C(=O)NC(CCCOC)CCCCCOc2nc(cn3ccnc23)-c2cc(ncc2OC)[C@H]1C` (single isomer, unassigned) [Example 60B] were, in that order, 100.9% and 2.2 nM.
Taken in the same sequence, the figures for `CCN1C(=O)N[C@@H](CCC(F)F)CCOCCOc2nc(nn3ccnc23)-c2cc(ncc2F)[C@H]1C` [Example 127, (3R,7S,E)-7-(3,3-difluoropropyl)-4-ethyl-25-fluoro-3-methyl-10,13-dioxa-4,6-diaza-1(2,4)-imidazo[2,1-f][1,2,4]triazina-2(4,2)-pyridinacyclotridecaphan-5-one] were 100.1% and 5.43 nM.
On to `CCN1C(=O)NCCCNCCOc2nc(cn3ccnc23)-c2cccc(c2)[C@H]1C` [Example 11], for which the hOX2R_Ipone max %act is on record as 75.54% and the EC50 was 778 nM.
Taken in the same sequence, the figures for `CCN1C(=O)N[C@@H](CCC(F)(F)F)C/C=C\COc2nc(cn3ccnc23)-c2cccc(c2)[C@H]1C` [Example 31, (1^7E,3R,7S,9Z)-4-ethyl-3-methyl-7-(3,3,3-trifluoropropyl)-12-oxa-4,6-diaza-1(6,8)-imidazo[1,2-a]pyrazina-2(1,3)-benzenacyclododecaphan-9-en-5-one] were 100.5% and 8 nM.
Taken in the same sequence, the figures for `CCN1C(=O)NC(CC2CC2)CCCCCOc2nc(cn3ccnc23)-c2cc(ncc2OC)[C@H]1C` (single isomer, unassigned) [Example 55B] were 101.2% and 0.6 nM.
Turning to `CCN1C(=O)N[C@@H](CCC(F)(F)F)CCCCCOc2cc(cn3ccnc23)-c2cc(ncn2)C1C` (single isomer, unassigned) [Example 96B], the hOX2R_Ipone max %act stood at 100.5% and the EC50 came to 2.9 nM.
Taken in the same sequence, the figures for `CCN1C(=O)NC(CC2(C(F)(F)F)CC2)CCCCCOc2nc(cn3ccnc23)-c2cc(ncc2OC)[C@H]1C` (single isomer, unassigned) [Example 66A] were 102.9% and 9.6 nM.
Regarding `CCN1Cc2cnc(OC)c(c2)-c2cn3ccnc3c(n2)OCCCCC[C@H](CCC(F)(F)F)NC1=O` [Example 51], the hOX2R_Ipone max %act is given as 99.5% and the 50% effective concentration (EC50) turned out to be 0.6 nM.
